Measured values reported in US20090081194A1, “COMPOSITIONS AND METHODS FOR REDUCING RISK OF DEVELOPMENT, OR SEVERITY, OF INAPPROPRIATE IMMUNE RESPONSE IN EYES” (priority 2007, published 2009).

Tests used:
[1] = target: T1, TLR9 (Homo sapiens, UniProt Q9NR96); conditions: Bhattacharjee et al. 2006; Macfarlane et al. 1998; cited from earlier work
T1 sequence (Q9NR96 26-1032): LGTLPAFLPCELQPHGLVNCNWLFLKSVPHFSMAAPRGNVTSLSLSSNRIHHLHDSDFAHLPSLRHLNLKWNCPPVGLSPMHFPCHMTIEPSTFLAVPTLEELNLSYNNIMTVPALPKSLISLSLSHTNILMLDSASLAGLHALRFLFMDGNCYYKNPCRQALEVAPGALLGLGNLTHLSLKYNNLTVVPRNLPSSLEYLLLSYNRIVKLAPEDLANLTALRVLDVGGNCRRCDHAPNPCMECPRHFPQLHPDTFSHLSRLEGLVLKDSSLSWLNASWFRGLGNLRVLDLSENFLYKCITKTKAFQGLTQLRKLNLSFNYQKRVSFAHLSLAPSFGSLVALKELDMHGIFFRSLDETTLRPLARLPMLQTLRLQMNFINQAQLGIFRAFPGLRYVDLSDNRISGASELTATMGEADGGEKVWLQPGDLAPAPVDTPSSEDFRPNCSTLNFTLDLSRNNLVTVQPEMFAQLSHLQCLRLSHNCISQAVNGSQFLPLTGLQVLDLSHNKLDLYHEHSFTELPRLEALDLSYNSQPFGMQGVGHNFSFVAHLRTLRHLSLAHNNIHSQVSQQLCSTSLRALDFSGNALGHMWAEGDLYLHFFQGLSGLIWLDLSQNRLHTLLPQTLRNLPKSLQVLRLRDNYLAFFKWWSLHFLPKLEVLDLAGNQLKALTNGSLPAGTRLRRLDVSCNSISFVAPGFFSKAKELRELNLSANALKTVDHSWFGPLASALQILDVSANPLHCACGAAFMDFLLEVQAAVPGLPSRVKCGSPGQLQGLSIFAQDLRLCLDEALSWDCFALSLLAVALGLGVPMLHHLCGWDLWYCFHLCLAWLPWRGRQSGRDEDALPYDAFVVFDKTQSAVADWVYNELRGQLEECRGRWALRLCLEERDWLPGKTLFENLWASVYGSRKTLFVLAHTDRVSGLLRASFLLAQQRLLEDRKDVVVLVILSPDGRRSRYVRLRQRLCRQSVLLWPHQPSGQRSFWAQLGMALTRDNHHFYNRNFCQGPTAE

[2] = test system: HCEL, a human corneal epithelial cell line; assay: TLR ligand-induced CXCL8 (IL-8) release, HCEL cell line; type: cell-based; conditions: inhibitor 1 hour before, FIG. 7
From the text: (§1) Three human cell lines representative of immune responsive cells of the ocular surface (HCEL, a human corneal epithelial cell line representative of cells present on the ocular surface; HL-60, a neutrophil-like cell line representative of neutrophils present in the tear layer, especially in the closed eye; and U937, a macrophage cell line representative of dendritic cells of the cornea, especially of those at the limbus) were exposed to various concentrations of compositions of the present invention containing the inhibitory ODN TTAGGG (InvivoGen, San Diego, Calif.) and vitamin D (1α,25-Dihydroxyvitamin D3, Sigma-Aldrich, St. Louis, Mo.) and control compositions containing prednisolone (1,4-Pregnadiene-11β,17α,21-triol-3,20-dione, Sigma-Aldrich, St. Louis, Mo.) for 1 hour prior to activation by the TLR ligand Pam3Cys for 6 hour, flagellin (flagellin purified from Salmonella typhimurium, InvivoGen, San Diego, Calif.) for 24 hr, or the stimulatory CpG type B ODN 2006 (Invivogen, San Diego, Calif.) for 24 hours. After incubation at 37° C., supernates were collected for ELISA assay (R&D Systems, Minneapolis, Minn.) for the pro-inflammatory cytokine CXCL8 (“IL-8”). Both the inhibitory ODN TTAGGG and vitamin D inhibited cytokine response to TLR ligand activation of each cell line in an inhibitor-specific manner. […] Inhibition of the stimulatory ODN CpGB ODN 2006 was only tested with inhibitory ODN TTAGGG on U937 cells.

[3] = test system: U937, a macrophage cell line; assay: TLR ligand-induced CXCL8 (IL-8) release, U937 cell line; type: cell-based, human; conditions: FIG. 7
From the text: as §1

[4] = test system: HL-60, a neutrophil-like cell line; assay: TLR ligand-induced CXCL8 (IL-8) release, HL-60 cell line; type: cell-based, human; conditions: inhibitor 1 hour before, FIG. 7
From the text: as §1

[5] = test system: TLR4; conditions: monocytes; K. Sadeghi et al. 2006; cited from earlier work
[6] = test system: TLR2; conditions: monocytes; K. Sadeghi et al. 2006; cited from earlier work
[7] = target: T1, TLR9; conditions: Gursel et al. 2003; Stunz et al. 2002; cited from earlier work
[8] = test system: NF-κB; conditions: LPS-elicited; H. Mitsuzawa et al. 2006; cited from earlier work
[9] = test system: U937 cells; conditions: H. Mitsuzawa et al. 2006; cited from earlier work
[10] = flagellin activation 24 hr, inhibitor 1 hour before

In the case of `Nc1ccnc2ccccc12` [4-aminoquinoline], the “immunostimulatory action of CpG ODN” value [1] is given as “block the immunostimulatory action of CpG ODN”.

For `Nc1c2ccccc2nc2ccccc12` [9-aminoacridine], the “immunostimulatory action of CpG ODN” value [1] is listed as “block the immunostimulatory action of CpG ODN”.

For `C[C@]12C=CC(=O)C=C1CC[C@@H]1[C@@H]2[C@@H](O)C[C@@]2(C)[C@H]1CC[C@]2(O)C(=O)CO` [Prednisolone, 1,4-Pregnadiene-11β,17α,21-triol-3,20-dione], the “CXCL8 (IL-8) cytokine response” value ([2]; Pam3Cys activation 6 hour) was “inhibited”, the “CXCL8 (IL-8) cytokine response” value ([2]; flagellin activation 24 hr) was “inhibited” and the “CXCL8 (IL-8) cytokine response” value [3, 10] was “inhibited”. The “CXCL8 (IL-8) cytokine response” value ([4]; Pam3Cys activation 6 hour) was “inhibited” and the “CXCL8 (IL-8) cytokine response” value ([4]; flagellin activation 24 hr) was “inhibited”.

For `C=C1/C(=C\C=C2/CCC[C@]3(C)[C@@H]([C@H](C)CCCC(C)(C)O)CC[C@@H]23)C[C@@H](O)C[C@@H]1O` [Vitamin D, 1α,25-Dihydroxyvitamin D3], the “expression of TLR4” value [5] is listed as “diminishes the expression”, the “expression of TLR2” value [6] is listed as “diminishes the expression” and the “CXCL8 (IL-8) cytokine response” value ([2]; Pam3Cys activation 6 hour) is listed as “reduced the cytokine response”. The “CXCL8 (IL-8) cytokine response” value [3, 10] was “reduced the cytokine response” and the “CXCL8 (IL-8) cytokine response” value ([4]; flagellin activation 24 hr) was “reduced the cytokine response”.

For `CCN(CC)CCCC(C)Nc1ccnc2cc(Cl)ccc12` (stereo not drawn) [chloroquine], the “immunostimulatory action of CpG ODN” value [1] is given as “block the immunostimulatory action of CpG ODN”.

In the case of `CCN(CCO)CCCC(C)Nc1ccnc2cc(Cl)ccc12` (stereo not drawn) [hydroxychloroquine], the “immunostimulatory action of CpG ODN” value [1] is given as “block the immunostimulatory action of CpG ODN”.

In the case of `CCN(CC)CCCC(C)Nc1c2ccc(Cl)cc2nc2ccc(OC)cc12` (stereo not drawn) [quinacrine], the “immunostimulatory action of CpG ODN” value [1] is given as “block the immunostimulatory action of CpG ODN”.

In the case of “TTAGGG (listed as Homo sapiens) [ODN TTTAGGG]”, the “CXCL8 (IL-8) cytokine response” value ([2]; Pam3Cys activation 6 hour) is given as “reduced the cytokine response”, the “colocalization of CpG DNA with TLR9 within endosomal vesicles” value [7] is given as “block the colocalization” and the “CXCL8 (IL-8) cytokine response” value ([3]; Pam3Cys activation 6 hour, inhibitor 1 hour before) is given as “reduced the cytokine response”. For the same molecule, the “CXCL8 (IL-8) cytokine response” value ([3]; stimulatory CpG type B ODN 2006 activation 24 hours) was “reduced the cytokine response” and the “CXCL8 (IL-8) cytokine response” value ([4]; Pam3Cys activation 6 hour) was “reduced the cytokine response”.

For “sTLR4: soluble form of a CD14-binding extracellular domain of TLR4”, the NF-κB activation [8] is given as “effective in inhibiting” and the “LPS-elicited IL-8 release” value [9] is given as “effective in inhibiting”.

B1: sMD-2: soluble form of MD-2 (protein, UniProt Q9Y6Y9 19-160, looked up)
Lymphocyte antigen 96: QKQYWVCNSSDASISYTYCDKMQYPISINVNPCIELKRSKGLLHIFYIPRRDLKQLYFNLYITVNTMNLPKRKEVICRGSDDDYSFCRALKGETVNTTISFSFKGIKFSKGKYKCVVEAISGSPEEMLFCLEFVILHQPNSN
For B1, the NF-κB activation [8] is given as “effective in inhibiting” and the “LPS-elicited IL-8 release” value [9] is given as “effective in inhibiting”.
